Data reported in US4988706A (priority 1988, dated 1991).
Structures can show the parent of a compound that is named as a salt. Where two headings read alike, the source gives them in different places.

How the values were obtained:
[1] = molecular target: muscarinic receptors (rat cerebral cortex); assay: Radio ligand binding: displacement of the muscarinic agonist 3H-Oxotremorine-M (3H-OXO-M); parameters: species or system Hooded Lister rats; details: displacement of 2nM 3H-OXO-M, rat cerebral cortex membranes, 2 mM magnesium chloride, 50 mM tris pH 7.7, 37° C., 30 min
[2] = molecular target: muscarinic receptors (rat cerebral cortex); type: binding, Hooded Lister rats; details: displacement of 0.27 nM 3H-QNB, rat cerebral cortex membranes, 50 mM tris pH 7.7, 37° C., 30 min

SMILES | IC50 [1] | IC50 [2]
FCc1noc(C23CCCN(CC2)C3)n1 (racemic) [Example E1, (±) 5-(3-Fluoromethyl-1,2,4-oxadiazol-5-yl)-1azabicyclo[3.2.l]octane oxalate salt] | 6.9 nM | 900 nM
Nc1noc(C23CCCN(CC2)C3)n1 (racemic) [Example E2, (±) 5-(3-Amino-1,2,4-oxadiazol-5-yl)-1-azabicyclo-[3.2.11octane] | 11 nM | 2000 nM
Nc1noc(C23CCN(CC2)C3)n1 [Example E4] | 32.5 nM | 2250 nM
FCc1noc(C23CCN(CC2)C3)n1 [Example E5, 4-(3-Fluoromethyl-1,2,4-oxadiazol-5-yl)-1-azabicyclo[2.2.11heptane oxalate salt] | 140 nM | 19500 nM
